This is an account of results in patent publication US9926297B2, “Bicyclic AZA compounds as muscarinic M1 receptor and/or M4 receptor agonists” (Heptares Therapeutics Limited, priority 2014, dated 2018).

The target in experiment [1] is T1, human muscarinic M1 receptor (Homo sapiens, UniProt P11229).
T1 sequence (P11229 1-460): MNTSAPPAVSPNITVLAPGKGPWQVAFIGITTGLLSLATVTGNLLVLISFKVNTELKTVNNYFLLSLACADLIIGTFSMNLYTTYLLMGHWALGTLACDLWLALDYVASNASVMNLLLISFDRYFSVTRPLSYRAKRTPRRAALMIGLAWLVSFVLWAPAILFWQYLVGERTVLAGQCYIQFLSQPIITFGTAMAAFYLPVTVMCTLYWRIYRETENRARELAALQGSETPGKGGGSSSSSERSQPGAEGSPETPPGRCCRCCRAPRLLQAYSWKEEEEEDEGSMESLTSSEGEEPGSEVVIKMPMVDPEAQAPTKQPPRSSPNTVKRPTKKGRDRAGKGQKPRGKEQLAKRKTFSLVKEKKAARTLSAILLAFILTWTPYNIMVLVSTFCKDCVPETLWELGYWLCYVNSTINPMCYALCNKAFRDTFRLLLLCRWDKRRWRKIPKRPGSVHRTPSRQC
Description: Alphascreen Surefire phospho-ERK1/2 functional assay, M1. The experiment is classed as cell-based. The conditions noted are these: for EC50: phospho-ERK1/2, * = variable results, read-out: pEC50 M1 (converted); for Emax: CHO, read-out: % Emax cf. ACh, M1, CHO cells stably expressing human M1.

The target in experiment [2] is T2, human muscarinic M4 receptor (Homo sapiens, UniProt P08173).
T2 construct: expressed in transfected cells
T2 sequence (P08173 1-479): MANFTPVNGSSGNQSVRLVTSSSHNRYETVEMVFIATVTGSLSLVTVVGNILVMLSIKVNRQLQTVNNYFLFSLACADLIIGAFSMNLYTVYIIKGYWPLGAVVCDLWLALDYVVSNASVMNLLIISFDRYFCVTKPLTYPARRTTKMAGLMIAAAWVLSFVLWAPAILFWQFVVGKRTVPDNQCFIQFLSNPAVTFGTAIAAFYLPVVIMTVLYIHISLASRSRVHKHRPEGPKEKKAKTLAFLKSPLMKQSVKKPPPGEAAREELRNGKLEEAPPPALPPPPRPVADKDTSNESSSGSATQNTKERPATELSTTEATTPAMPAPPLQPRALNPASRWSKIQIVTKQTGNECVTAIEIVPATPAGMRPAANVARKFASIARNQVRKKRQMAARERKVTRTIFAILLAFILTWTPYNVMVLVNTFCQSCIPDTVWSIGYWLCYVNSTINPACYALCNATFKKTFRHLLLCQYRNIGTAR
Description: Alphascreen Surefire phospho-ERK1/2 functional assay, M4. The experiment is classed as cell-based. To be noted: for EC50: phospho-ERK1/2, * = variable results, read-out: pEC50 M4 (converted); for Emax: CHO, read-out: % Emax cf. ACh, M4, CHO cells stably expressing human M4. (In general: Alpha assays give light when donor and acceptor beads are brought close together.)

Experiment [3] addresses T3, human muscarinic M2 receptor (Homo sapiens, UniProt P08172).
T3 sequence (P08172 1-466): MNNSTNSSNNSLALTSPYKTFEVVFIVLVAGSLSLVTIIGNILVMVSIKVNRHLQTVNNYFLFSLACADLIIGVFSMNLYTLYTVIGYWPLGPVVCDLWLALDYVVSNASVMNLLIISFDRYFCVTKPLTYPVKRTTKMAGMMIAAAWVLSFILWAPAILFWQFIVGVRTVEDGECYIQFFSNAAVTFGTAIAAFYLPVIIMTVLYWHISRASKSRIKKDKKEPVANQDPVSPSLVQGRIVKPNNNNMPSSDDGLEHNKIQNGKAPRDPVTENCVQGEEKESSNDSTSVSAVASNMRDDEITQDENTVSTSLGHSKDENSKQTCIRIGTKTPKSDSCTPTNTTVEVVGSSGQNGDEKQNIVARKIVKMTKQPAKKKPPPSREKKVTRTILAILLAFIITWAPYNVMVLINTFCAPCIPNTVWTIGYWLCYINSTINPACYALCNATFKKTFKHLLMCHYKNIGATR
Description: Alphascreen Surefire phospho-ERK1/2 functional assay, M2. The conditions noted are these: for Emax: CHO, read-out: % Emax cf. ACh, M2, CHO cells stably expressing human M2, relative to ACh.

The target of experiment [4] is human muscarinic M3 receptor (Homo sapiens, UniProt P20309). In words: Alphascreen Surefire phospho-ERK1/2 functional assay, M3. To be noted: for Emax: CHO, read-out: % Emax cf. ACh, M3, CHO cells stably expressing human M3; for EC50: pEC50 M3, CHO cells stably expressing human M3, phospho-ERK1/2, * = variable results.
Setting [5] is: CHO cells stably expressing human M1.
[6] abbreviates: CHO cells stably expressing human M4.

human muscarinic M3 receptor, sequence (P20309 whole entry): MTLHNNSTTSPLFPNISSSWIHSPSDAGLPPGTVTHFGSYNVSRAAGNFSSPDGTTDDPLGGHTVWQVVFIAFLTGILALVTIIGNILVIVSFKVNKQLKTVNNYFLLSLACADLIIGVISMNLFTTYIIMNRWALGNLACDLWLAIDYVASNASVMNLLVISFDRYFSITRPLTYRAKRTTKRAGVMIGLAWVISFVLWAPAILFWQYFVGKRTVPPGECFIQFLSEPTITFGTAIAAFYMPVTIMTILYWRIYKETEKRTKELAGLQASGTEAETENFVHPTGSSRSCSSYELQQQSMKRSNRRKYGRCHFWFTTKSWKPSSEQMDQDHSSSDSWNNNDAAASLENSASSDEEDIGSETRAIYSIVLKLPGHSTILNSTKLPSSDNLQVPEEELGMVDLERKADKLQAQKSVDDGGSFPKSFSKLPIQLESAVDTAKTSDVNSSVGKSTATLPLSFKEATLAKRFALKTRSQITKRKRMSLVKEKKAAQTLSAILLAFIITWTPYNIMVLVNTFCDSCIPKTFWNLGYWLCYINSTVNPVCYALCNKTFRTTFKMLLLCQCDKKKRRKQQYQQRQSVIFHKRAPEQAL

As to `CCOC(=O)N1CCC2(CC(N3CCC([C@@H]4C[C@H](F)CN4C(=O)CC)CC3)C2)C1` (single isomer, unassigned) [2-59 Isomer 2], the EC50 was 3.16 µM in experiment [1] (setting [5]), 0.251 µM in experiment [2] (setting [6]), above 20 µM in experiment [3] and above 20 µM in experiment [4]. Further, the Emax in experiment [1] (relative to ACh) was 28%; in experiment [2] (relative to ACh), 67%; in experiment [3] it was 11%; in experiment [4] (relative to ACh), 7%.
As for `CCOC(=O)N1CCC2(CC(N3CCC([C@@H]4CCCN4C(=O)CCc4ccccn4)CC3)C2)C1` (single isomer, unassigned) [2-62 Isomer 2], the EC50 in experiment [1] (setting [5]) was above 20 µM; in experiment [2] (setting [6]) it was 0.0158 µM; in experiment [3], above 20 µM; in experiment [4], above 20 µM. For the same compound, the maximal response (Emax) was 20% in experiment [1] (relative to ACh), 65% in experiment [2] (relative to ACh), 6% in experiment [3] and 8% in experiment [4] (relative to ACh).
`CCOC(=O)N1CCC2(CC(N3CCC([C@@H]4CCCN4C(=O)N(C)Cc4ccccn4)CC3)C2)C1` (single isomer, unassigned) [2-63 Isomer 2]: the EC50 was 0.251 µM in experiment [1] (setting [5]), 0.0631 µM in experiment [2] (setting [6]), above 20 µM in experiment [3] and above 20 µM in experiment [4]. The Emax in experiment [1] (relative to ACh) is 34%; in experiment [2] (relative to ACh) it was 60%; in experiment [3] it was 0%; in experiment [4] (relative to ACh) it was 4%.
For the compound `CCOC(=O)N1CCC2(CC(N3CCC([C@@H]4CCCN4C(=O)OCc4ccccn4)CC3)C2)C1` (single isomer, unassigned) [2-64 Isomer 2], the EC50 is above 20 µM in experiment [1] (setting [5]), 0.00316 µM in experiment [2] (setting [6]), above 20 µM in experiment [3] and above 20 µM in experiment [4]. Also, the Emax was found to be 12% in experiment [1] (relative to ACh), 41% in experiment [2] (relative to ACh), 6% in experiment [3] and 8% in experiment [4] (relative to ACh).
Take `CCOC(=O)N1CCC2(CC(N3CCC([C@@H]4CCCN4C(=O)CCNC(=O)OCc4ccccc4)CC3)C2)C1` (single isomer, unassigned) [2-65 Isomer 2]: the EC50 in experiment [1] (setting [5]) is 0.158 µM; in experiment [2] (setting [6]), 0.00794 µM; in experiment [3], above 20 µM; in experiment [4], above 20 µM. Besides, the Emax in experiment [1] (relative to ACh) turned out to be 60%; in experiment [2] (relative to ACh), 107%; in experiment [3], 1%; in experiment [4] (relative to ACh), 1%.
With `CCOC(=O)N1CCC2(CC(N3CCC([C@@H]4CCCN4C(=O)CCN)CC3)C2)C1` (single isomer, unassigned) [2-66 Isomer 2], the EC50 in experiment [1] (setting [5]) was 0.0398 µM; in experiment [2] (setting [6]), 0.00126 µM; in experiment [3], above 20 µM; in experiment [4], above 20 µM. The Emax in experiment [1] (relative to ACh) was found to be 96%; in experiment [2] (relative to ACh) it was 115%; in experiment [3] it was 18%; in experiment [4] (relative to ACh) it was 8%.
With `CCOC(=O)N1CCC2(CC(N3CCC([C@@H]4CCCN4C(=O)OCCNC)CC3)C2)C1` (single isomer, unassigned) [2-67 Isomer 2], the EC50 was above 20 µM in experiment [1] (setting [5]), 0.02 µM in experiment [2] (setting [6]), above 20 µM in experiment [3] and above 20 µM in experiment [4]. The Emax turned out to be 19% in experiment [1] (relative to ACh), 79% in experiment [2] (relative to ACh), 67% in experiment [3] and 1% in experiment [4] (relative to ACh).
`CCOC(=O)N1CCC2(CC(N3CCC([C@@H]4CCCN4CCF)CC3)C2)C1` (single isomer, unassigned) [2-68 Isomer 2]: the EC50 in experiment [1] (setting [5]) was 1 µM; in experiment [2] (setting [6]) it was 0.0631 µM; in experiment [3], above 20 µM; in experiment [4] it was above 20 µM. In addition, the Emax in experiment [1] (relative to ACh) was 32%; in experiment [2] (relative to ACh), 73%; in experiment [3] it was 4%; in experiment [4] (relative to ACh) it was 6%.
Turning to `CCOC(=O)N1CCC2(CC(N3CCC([C@@H]4CCCN4CC(F)(F)F)CC3)C2)C1` (single isomer, unassigned) [2-69 Isomer 2], the EC50 in experiment [1] (setting [5]) was 0.398 µM; in experiment [2] (setting [6]), 0.0126 µM; in experiment [3], above 20 µM; in experiment [4] it was above 20 µM. Further, the Emax in experiment [1] (relative to ACh) was determined as 87%; in experiment [2] (relative to ACh) it was 110%; in experiment [3], 3%; in experiment [4] (relative to ACh), 2%.
As for `CCOC(=O)N1CCC2(CC(N3CCC([C@@H]4CCCN4CCC(F)(F)F)CC3)C2)C1` (single isomer, unassigned) [2-70 Isomer 2], the EC50 in experiment [1] (setting [5]) was 1.58 µM; in experiment [2] (setting [6]) it was 0.0316 µM; in experiment [3], above 20 µM; in experiment [4], above 20 µM. Moreover, the “% Emax cf. ACh, M1” value in experiment [1] (CHO cells stably expressing human M1, relative to ACh) turned out to be 93%. For the same compound, the “% Emax cf. ACh, M4” value in experiment [2] (CHO cells stably expressing human M4, relative to ACh) was 111%. Further, the Emax in experiment [3] worked out at 1%; in experiment [4] (relative to ACh), 3%.
Regarding `CCOC(=O)N1CCC2(CC(N3CCC([C@@H]4CCCN4CC(=O)OC)CC3)C2)C1` (single isomer, unassigned) [2-72 Isomer 2], the EC50 is 0.794 µM in experiment [1] (setting [5]), 0.0794 µM in experiment [2] (setting [6]), above 20 µM in experiment [3] and above 20 µM in experiment [4]. For the same compound, the Emax is 30% in experiment [1] (relative to ACh), 52% in experiment [2] (relative to ACh), 13% in experiment [3] and 10% in experiment [4] (relative to ACh).
As to `CCOC(=O)N1CCC2(CC(N3CCC([C@@H]4CCCN4Cc4ccccc4)CC3)C2)C1` (single isomer, unassigned) [2-74 Isomer 2], the EC50 in experiment [1] (setting [5]) was above 20 µM; in experiment [2] (setting [6]), 0.0794 µM; in experiment [3] it was above 20 µM; in experiment [4], above 20 µM. Further, the Emax in experiment [1] (relative to ACh) was found to be 18%; in experiment [2] (relative to ACh), 54%; in experiment [3] it was 16%; in experiment [4] (relative to ACh) it was 8%.
As to `CCOC(=O)N1CCC2(CC(N3CCC([C@@H]4CCCN4C(=S)NC)CC3)C2)C1` (single isomer, unassigned) [2-75 Isomer 2], the EC50 in experiment [1] (setting [5]) was 0.316 µM; in experiment [2] (setting [6]) it was 0.00251 µM; in experiment [3], above 20 µM; in experiment [4] it was above 20 µM. The Emax in experiment [1] (relative to ACh) came to 80%; in experiment [2] (relative to ACh) it was 109%; in experiment [3], 6%; in experiment [4] (relative to ACh) it was 4%.
Regarding `CCOC(=O)N1CCC2(CC(N3CCC(C4c5ccccc5CN4C(=O)NC)CC3)C2)C1` (single isomer, unassigned) [2-76 Isomer 1, ethyl 2-(4-(2-(methylcarbamoyl)-isoindolin-1-yl)piperidin-1-yl)-6-azaspiro[3.4]octane-6-carboxylate], the EC50 was 0.126 µM in experiment [1] (setting [5]), 0.0398 µM in experiment [2] (setting [6]), above 20 µM in experiment [3] and above 20 µM in experiment [4]. The Emax is 82% in experiment [1] (relative to ACh), 114% in experiment [2] (relative to ACh) and 10% in experiment [3]. Further, the “% Emax cf. ACh, M3” value in experiment [4] (CHO cells stably expressing human M3, relative to ACh) came out at 35%.

Broadly, the Emax is the greatest response seen or fitted, relative to the assay's reference.
